Test results taken from patent US20190078161A1, “METHOD FOR IDENTIFYING CLINICAL TRIAL RESPONDERS FROM A PLACEBO GROUP IN MAJOR DEPRESSION” (Tekada Pharmaceutical Company Limited, priority 2016, published 2019).

What was measured:
Assay type in all cases: in vivo, human
adult patients with MDD [1] = assay: TAK-315 Trial: change from baseline in MADRS total score, 8 weeks of treatment
Experimental: (§1) Multicenter, randomized, double-blind, parallel-group, placebo-controlled, drug-referenced, fixed-dose studies were conducted to evaluate the efficacy and safety of vortioxetine in the acute treatment of adult patients with MDD. A total of 595 individuals meeting the diagnostic criteria from the DSM-IV-TR for recurrent MDD were included in the studies, TAK-315, -316 and -317. The current major depressive disorder for each individual was confirmed by the Structured Clinical Interview for DSM Disorders (SCID). […] Individuals were treated with 10, 15 or 20 mg vortioxetine, or a different drug, or administered a placebo daily for 8 weeks.
(§2) Subjects were seen weekly during the first 2 weeks of treatment and then every 2 weeks up to the end of the 8-week treatment period. The primary outcome measure was change from baseline in MADRS total score after 8 Weeks of treatment. MADRS is a depression rating scale consisting of 10 items, each rated 0 (no symptom) to 6 (severe symptom). The 10 items represent the core symptoms of depressive illness. The rating is based on a clinical interview with the patient, moving from broadly phrased questions about symptoms to more detailed ones, which allow a precise rating of severity, covering the most recent 7 days. Total score is from 0 to 60, with a higher the score being the more severe. […]

adult patients with MDD [2] = assay: TAK-316 Trial: change from baseline in MADRS total score, 8 weeks of treatment
Experimental: as §1, §2

adult patients with MDD [3] = assay: Combined TAK-315 and TAK-316 Trials: predicted MADRS response rate by 24-SNP placebo subgroup
Experimental: as §1
Secondary outcome measures included the proportion of responders at week 8 (responders defined as a 50% decrease in MADRS total score from baseline); a change from baseline in MADRS total score at week 8; and a change in clinical status using CGI-I score at week 8. The CGI-I scale is a 7-point scale rated from 1 (very much improved) to 7 (very much worse). The investigator rated the patient's overall improvement relative to baseline, whether or not, in the opinion of the investigator, this was entirely due to the treatment.
A main effect model was utilized to identify genes or single variants prognostic of response using the placebo samples.
In the placebo arm, the mean response rate in the subgroup [N=125; BM(+)] was 47.33% (CL: 0.38-0.57) and not in the subgroup [N=94; BM(−)] was 15.52% (CL: 0.1-0.25). The subgroup size in the placebo arm was 57.1% [BM(+)] and 42.9% [BM(−)]. […] The placebo subgroup size in the Vortioxetine 20 mg treat arm was 45.9(%) [BM(+), N=89] and 54.1% [BM(−), N=105].
FIG. 8 provides a comparison of the 24 SNP placebo model in the three trials' (TAK-315, 316 & 317) placebo arms and the 20 mg vortioxetine dose in TAK-315 and -316. […] In the placebo arm the mean response rate in the subgroup [N=187; BM(+)] was 46.63% (CL: 0.39-0.55) and not in the subgroup [N=148; BM(−)] was 17.02% (CL: 0.12-0.24). The subgroup size in the placebo arm was 55.8% [BM(+)] and 44.2% [BM(−)]. […] The subgroup size in the Vortioxetine 20 mg treat arm was 45.9% [BM(+), N=89] and 54.1% [BM(−), N=105].

[4] = 20 mg vortioxetine daily, 8 weeks

In the case of `Cc1ccc(Sc2ccccc2N2CCNCC2)c(C)c1` [vortioxetine], the “LS mean (SE) change from baseline in MADRS score” value (adult patients with MDD [1]; [4]) is reported as −15.56 (1.67), the “LS mean difference in MADRS change, active vs. placebo BM(+)” value (adult patients with MDD [1]; 20 mg vortioxetine vs 24-SNP Placebo BM(+) subgroup, SE 2.11) is reported as 0.12 and the “LS mean (SE) change from baseline in MADRS score” value (adult patients with MDD [2]; [4]) is reported as −13.87 (1.63). The “LS mean difference in MADRS change, active vs. placebo BM(+)” value (adult patients with MDD [2]; 20 mg vortioxetine vs 24-SNP Placebo BM(+) subgroup, SE 2.14) was 0.12, the “mean response rate (MADRS, LSmean predicted response rate)” value (adult patients with MDD [3]; Vortioxetine 20 mg arm (TAK-315 and -316), placebo BM(+) subgroup N=89, analysis with TAK-315/316/317 placebo arms (FIG. 8)) was 36.00% and the “mean response rate (MADRS, LSmean predicted response rate)” value (adult patients with MDD [3]; Vortioxetine 20 mg arm (TAK-315 and -316), placebo BM(−) subgroup N=105, analysis with TAK-315/316/317 placebo arms (FIG. 8)) was 44.0%. The “mean response rate (MADRS, LSmean predicted response rate)” value (adult patients with MDD [3]; Vortioxetine 20 mg arm, placebo BM(+) subgroup N=89, TAK-315/316 analysis (FIG. 6)) was 35.96% and the “mean response rate (MADRS, LSmean predicted response rate)” value (adult patients with MDD [3]; Vortioxetine 20 mg arm, placebo BM(−) subgroup N=105, TAK-315/316 analysis (FIG. 6)) was 43.0%.
